Measured values as given in PMC8617944, “Preclinical Pharmacokinetics and Acute Toxicity in Rats of 5-{[(2E)-3-Bromo-3-carboxyprop-2-enoyl]amino}-2-hydroxybenzoic Acid: A Novel 5-Aminosalicylic Acid Derivative with Potent Anti-Inflammatory Activity” (Molecules, 2021).

Experiment: Stability of C1 in rat plasma (RP-HPLC)
Format: in vitro ADME
Conditions: for Difference at 12 h (%) / Difference at 24 h (%) / Difference at 48 h (%): rat plasma
Description: C1 was quantified in a liquid chromatograph Agilent 1260 Infinity Series (Agilent Technologies, Palo Alto, CA, USA) equipped with a quaternary pump delivery system (G1311B), robotic autosampler (G1316A), column thermostat (G1316A), and a multi-wavelength UV detector (G1315C). The results were analyzed with OpenLab CDS EZChrom. Separation was performed on a Zorbax SB-Phenyl column (5 µm, 4.6 × 150 mm, Agilent Technologies, Palo Alto, CA, USA) and UV detection was carried out at 305 nm. The column temperature was maintained at 25 °C, and the injection volume was 10 μL. The mobile phase consisted of a mixture of (A) acetonitrile, (B) methanol, and (C) water at a ratio of 50% A, 10% B, and 40% C, at a flow rate of 1.0 mL/min. The total analysis time for each sample was 5.0 min when using an isocratic elution. It was not necessary to equilibrate between each injection.
In addition, the potential interference of heparin, ketamine, and xylazine was investigated. Method specificity was assessed by the values of peak identity and purity of C1. A peak purity angle that is less than the peak threshold angle is an indication of spectral homogeneity or purity of C1. Stability of C1 in plasma was evaluated in triplicate using the quality control samples at four concentrations. Samples were stored at 25 °C for 12, 24, and 48 h (short-term stability), and three freeze-thaw cycles at −20 to +25 °C for 12, 24, and 48 h. […] The concentration of C1 after each storage period was compared to the initial concentration, which was determined for freshly prepared samples [57, 59].

[1] = refrigeration (4 °C), 0.1 µg/mL
[2] = refrigeration (4 °C), 0.5 µg/mL
[3] = refrigeration (4 °C), 100 µg/mL
[4] = room temperature (25 °C), 0.1 µg/mL, difference to nominal concentration
[5] = room temperature (25 °C), 0.5 µg/mL
[6] = room temperature (25 °C), 10 µg/mL
[7] = room temperature (25 °C), 100 µg/mL
[8] = three freeze–thaw cycles (−20 to +25 °C), 0.1 µg/mL
[9] = three freeze–thaw cycles (−20 to +25 °C), 0.5 µg/mL
[10] = three freeze–thaw cycles (−20 to +25 °C), 10 µg/mL
[11] = three freeze–thaw cycles (−20 to +25 °C), 100 µg/mL

With `O=C(/C=C(/Br)C(=O)O)Nc1ccc(O)c(C(=O)O)c1` [Compound C1, 5-{[(2E)-3-bromo-3-carboxyprop-2-enoyl]amino}-2-hydroxybenzoic acid] the “stability in rat plasma” value (4 °C) was “up to 72 h at 4 °C”, the “stability in rat plasma” value (25 °C) was “stable in rat plasma stored up to 48 h at 25 °C” and the “Difference at 12 h (%)” value [1] was 5.1%. The “Difference at 24 h (%)” value [1] was 14.0%, the “Difference at 48 h (%)” value [1] was 4.3% and the “Difference at 12 h (%)” value [2] was 4.0%. For the same molecule, the “Difference at 24 h (%)” value [2] was 3.6%, the “Difference at 48 h (%)” value [2] was 5.3% and the “Difference at 12 h (%)” value (refrigeration (4 °C), 10 µg/mL) was 10.1%. The “Difference at 24 h (%)” value (refrigeration (4 °C), 10 µg/mL) was 13.1%, the “Difference at 48 h (%)” value (refrigeration (4 °C), 10 µg/mL) was 9.3% and the “Difference at 12 h (%)” value [3] was 1.2%. The “Difference at 24 h (%)” value [3] was 0.2%, the “Difference at 48 h (%)” value [3] was 5.2% and the “Difference at 12 h (%)” value [4] was 10.7%. For the same molecule, the “Difference at 24 h (%)” value [4] was 3.2%, the “Difference at 48 h (%)” value [4] was 3.8% and the “Difference at 12 h (%)” value [5] was 3.2%. For the same molecule, the “Difference at 24 h (%)” value [5] was 7.8%, the “Difference at 48 h (%)” value [5] was 4.1% and the “Difference at 12 h (%)” value [6] was 9.5%. For the same molecule, the “Difference at 24 h (%)” value [6] was 6.5%, the “Difference at 48 h (%)” value [6] was 3.7% and the “Difference at 12 h (%)” value [7] was 0.5%. The “Difference at 24 h (%)” value [7] was 6.5%, the “Difference at 48 h (%)” value [7] was 5.4% and the “Difference at 12 h (%)” value [8] was 5.1%. For the same molecule, the “Difference at 24 h (%)” value [8] was 1.76%, the “Difference at 48 h (%)” value [8] was 3.4% and the “Difference at 12 h (%)” value [9] was 0.1%. The “Difference at 24 h (%)” value [9] was 0.3%, the “Difference at 48 h (%)” value [9] was 1.0% and the “Difference at 12 h (%)” value [10] was 0.7%. For the same molecule, the “Difference at 24 h (%)” value [10] was 1.2%, the “Difference at 48 h (%)” value [10] was 3.2% and the “Difference at 12 h (%)” value [11] was 0.1%. The “Difference at 24 h (%)” value [11] was 0.6%, the “Difference at 48 h (%)” value [11] was 2.0% and the “stability in rat plasma” value (three freeze–thaw cycles) was “stable before the three freeze–thaw cycles”.
